From US20230048888A1, “USE OF TRIAZOLOTRIAZINE DERIVATIVE IN TREATMENT OF DISEASES” (ZHEJIANG VIMGREEN PHARMACEUTICALS, LTD., priority 2019, published 2023)
Like-named read-outs stand apart in the source and are kept apart here.

Experiment: Pharmacokinetics of acetate of Compound 22 in SD rats with single and repeated administration
Type: in vivo
Conditions: Sprague-Dawley, rat, plasma; for half-life: read-out: T1/2 (converted); for Tmax: read-out: Tmax (median); for AUC(0-t): read-out: AUC0-t; for Cmax: read-out: Cmax
Description: The formulation for Group 5 was prepared before administration on Day 1, and then, divided into daily doses and stored at 5±3° C. After taking out the formulations on the day of administration, the formulations should be let stand at room temperature for at least 30 minutes before administration.
After blood collection, the blood collection tube containing the anticoagulant was turned upside down several times to mix well, and placed on wet ice before centrifugation. Within 60 minutes after blood collection, the samples were centrifuged at 2000 g for 10 minutes at 2-8° C. to separate red blood cells, thereby obtaining plasma samples. The plasma samples were transferred to cryovials and stored at −75±15° C. until analysis.
Blood samples were collected from SD rats at room temperature before administration and within 24 hours after administration. All collected samples were placed on wet ice before centrifugation and stored at −75±15° C. until analysis.
The mass spectrometer was Applied Biosystems/AB Sciex Triple Quad 4500.
Pharmacokinetic data was calculated using the linear logarithmic trapezoidal method, with a weight of 1/(Y*Y). Samples with the sample concentration below the lower limit of quantification were excluded from the calculation of pharmacokinetic parameters. […] The mean time to peak (Tmax) was represented as a median.

[1] = both sexes, po, 63 mg/kg, Group 5 PO 63 mg/kg repeated, Day 1, Overall
[2] = both sexes, po, 63 mg/kg, Group 5 PO 63 mg/kg repeated, Day 7, Overall
[3] = both sexes, po, 189 mg/kg, Group 4 PO 189 mg/kg single, Overall
[4] = female, iv, 2 mg/kg, Group 1 IV 2.0 mg/kg single, Female
[5] = female, po, 21 mg/kg, Group 2 PO 21 mg/kg single, Female
[6] = female, po, 63 mg/kg, Group 3 PO 63 mg/kg single, Female
[7] = female, po, 63 mg/kg, Group 5 PO 63 mg/kg repeated, Day 1, Female
[8] = female, po, 63 mg/kg, Group 5 PO 63 mg/kg repeated, Day 7, Female
[9] = female, po, 189 mg/kg, Group 4 PO 189 mg/kg single, Female
[10] = male, iv, 2 mg/kg, Group 1 IV 2.0 mg/kg single, Male
[11] = male, po, 21 mg/kg, Group 2 PO 21 mg/kg single, Male
[12] = male, po, 63 mg/kg, Group 3 PO 63 mg/kg single, Male
[13] = male, po, 63 mg/kg, Group 5 PO 63 mg/kg repeated, Day 1, Male
[14] = male, po, 63 mg/kg, Group 5 PO 63 mg/kg repeated, Day 7, Male
[15] = male, po, 189 mg/kg, Group 4 PO 189 mg/kg single, Male

Compound `CC(=O)O.Nc1nc(NCCc2ccc(NC3COC3)cc2)nc2nc(-c3ccco3)nn12` [Acetate of Compound 22, 2-(furan-2-yl)-N5-(4-(oxetane-3-ylamino)phenethyl)-[1,2,4]triazolo[1,5-a][1,3,5]triazine-5,7-diamine acetate] has a half-life [1] of 3.33 ± 1.68 h, a Tmax [1] of 2 h and an AUC(0-t) [2] of 127 ± 40.7 µg·h/mL. It also gave a Cmax [2] of 38300 ± 8840 ng/mL, a half-life [2] of 3.21 ± 0.615 h and a Tmax [2] of 1 h. The AUC(0-t) [3] was 241 ± 39.1 µg·h/mL, the Cmax [3] was 51800 ± 11800 ng/mL and the half-life [3] was 5.26 ± 3.05 h. It also gave a Tmax [3] of 2 h, an AUC(0-t) [4] of 5.85 ± 0.149 µg·h/mL and a half-life [4] of 4.7 ± 3.22 h. The AUC(0-t) [5] was 43.5 ± 4.15 µg·h/mL, the Cmax [5] was 20100 ± 3860 ng/mL and the half-life [5] was 3.73 ± 0.771 h. It also gave a Tmax [5] of 0.5 h, an AUC(0-t) [6] of 137 ± 40.4 µg·h/mL and a Cmax [6] of 30500 ± 9710 ng/mL. For the same compound, the half-life [6] was 2.91 ± 0.949 h, the Tmax [6] was 1 h and the AUC(0-t) [7] was 142 ± 23.1 µg·h/mL. The Cmax [7] was 37700 ± 2380 ng/mL, the half-life [7] was 2.4 ± 0.523 h and the Tmax [7] was 2 h. For the same compound, the AUC(0-t) [8] was 157 ± 36.9 µg·h/mL, the Cmax [8] was 45600 ± 1550 ng/mL and the half-life [8] was 2.73 ± 0.359 h. For the same compound, the Tmax [8] was 1 h, the AUC(0-t) [9] was 248 ± 55.6 µg·h/mL and the Cmax [9] was 59600 ± 12100 ng/mL. For the same compound, the half-life [9] was 7.63 h, the Tmax [9] was 1 h and the AUC(0-t) [10] was 4.87 ± 0.601 µg·h/mL. For the same compound, the half-life [10] was 1.43 h, the AUC(0-t) [11] was 42 ± 10.5 µg·h/mL and the Cmax [11] was 16600 ± 4100 ng/mL. The half-life [11] was 3.21 ± 0.304 h, the Tmax [11] was 0.5 h and the AUC(0-t) [12] was 87.3 ± 3.04 µg·h/mL. For the same compound, the Cmax [12] was 24200 ± 2340 ng/mL, the half-life [12] was 3.1 ± 0.251 h and the Tmax [12] was 1 h. For the same compound, the AUC(0-t) [13] was 79.7 ± 31.5 µg·h/mL, the Cmax [13] was 19900 ± 9080 ng/mL and the half-life [13] was 4.26 ± 2.04 h. The Tmax [13] was 1 h, the AUC(0-t) [14] was 98.1 ± 14.7 µg·h/mL and the Cmax [14] was 31000 ± 5750 ng/mL. The half-life [14] was 3.69 ± 0.342 h, the Tmax [14] was 1 h and the AUC(0-t) [15] was 235 ± 24.3 µg·h/mL. It also gave a Cmax [15] of 44100 ± 4710 ng/mL, a half-life [15] of 3.68 ± 1.22 h and a Tmax [15] of 4 h.
